# Measurements as given in US20020137929A1, “1 - (3-heterocyclylphenyl) isothiourea, -isourea, -guanidine and -amidine herbicidal agents” (Intellectual Property Department, BASF Aktiengesellschaft, priority 1998, published 2002).
# Assays:
# GLXMA (Soybean) [1] = assay: Preemergence herbicidal evaluation; type: in vivo, Glycine max; conditions: rated 4-5 weeks after treatment
# Source text: (§1) Results of herbicide evaluation are expressed on a rating scale (0-9). The scale is based upon a visual observation of plant stand, vigor, malformation, size, chlorosis and overall plant appearance as compared with a control.
# The preemergence herbicidal activity of the test compounds of the present invention is exemplified by the following tests in which the seeds of a variety of monocotyledonous and dicotyledonous plants are separately mixed with potting soil and planted on top of approximately one inch of soil in separate pint cups. After planting, the cups are sprayed with the selected aqueous acetone solution containing test compound in sufficient quantity to provide the equivalent of about 0.0156 to 0.500 kg per hectare of test compound per cup. The treated cups are then placed on greenhouse benches, watered and cared for in accordance with conventional greenhouse procedures. From four to five weeks after treatment, the tests are terminated and each cup is examined and rated according to the rating system provided in Example 37.
# The compounds evaluated are reported by compound number given in Example 37.
# GLXMA (Soybean) [2] = assay: Postemergence herbicidal evaluation; type: in vivo, Glycine max
# Procedure: In the tests, seedling plants are grown in jiffy flats for about two weeks. The test compounds are dispersed in 50/50 acetone/water mixtures containing 0.5% TWEEN®20, a polyoxyethylene sorbitan monolaurate surfactant of Atlas Chemical Industries, in sufficient quantities to provide the equivalent of about 0.0156 kg to 0.500 kg per hectare of active compound when applied to the plants through a spray nozzle operating at 40 psi for a predetermined time. After spraying, the plants are placed on greenhouse benches and are cared for in accordance with conventional greenhouse procedures. From four to five weeks after treatment, the seedling plants are examined and rated according to the rating system set forth below. Where more than one test is involved for a given compound, the data are averaged.
# Plant species employed in these evaluations are reported by header abbreviation, common name and scientific name.
# as §1
structure (smiles),measurement,setting,value
"CN1C(=O)C(F)SC1=Nc1cc(N2C(=O)C3=C(CCCC3)C2=O)c(F)cc1Cl (stereo not shown) [Compound 5, N-{4-chloro-2-fluoro-5-[(5-fluoro-3-methyl-4-oxo-2-thiazolidinylidene)amino]phenyl}-1-cyclohexene-1,2-dicarboximide]",GLXMA preemergence herbicidal rating,GLXMA (Soybean) [1]; rate 0.0625 kg/ha,1.0
same,GLXMA preemergence herbicidal rating,GLXMA (Soybean) [1]; rate 0.1250 kg/ha,1.0
same,GLXMA preemergence herbicidal rating,GLXMA (Soybean) [1]; rate 0.2500 kg/ha,2.0
same,GLXMA preemergence herbicidal rating,GLXMA (Soybean) [1]; rate 0.5000 kg/ha,2.0
same,GLXMA herbicidal rating,GLXMA (Soybean) [2]; rate 0.0157 kg/ha,3.0
same,GLXMA herbicidal rating,GLXMA (Soybean) [2]; rate 0.0313 kg/ha,3.0
same,GLXMA herbicidal rating,GLXMA (Soybean) [2]; rate 0.0625 kg/ha,3.0
same,GLXMA herbicidal rating,GLXMA (Soybean) [2]; rate 0.1250 kg/ha,4.0
same,GLXMA herbicidal rating,GLXMA (Soybean) [2]; rate 0.2500 kg/ha,4.0
same,GLXMA herbicidal rating,GLXMA (Soybean) [2]; rate 0.5000 kg/ha,4.5
